# Earlier results as cited in patent publication US20040037880A1, “Extended release formulation of divalproex sodium” (priority 2002, published 2004).
# Where two headings read alike, the source gives them in different places.
compound,measurement,setting,value
CCCC(CCC)C(=O)O [valproic acid],elimination half-life,adults,6 to 17 h
same,elimination half-life,children,4 to 14 h
